According to US7253295B2, “Chloride channel opener” (Sucampo AG, priority 2001, dated 2007):

Legend:
[1] = test system: AS-HBE cells; test: Short-circuit current in AS-HBE cells (Test Example 3); assay type: cell-based, human; conditions: 250 nM
Protocol: AS-HBE is a human bronchial epithelial (HBE) cell line expressing the first 131 nucleotides of CFTR in the antisense direction (antisense CFTR 16HBE14o- cells, HBE-AS; also called AS-HBE). As a result, AS-HBE cells lack CFTR transcripts and lack functional CFTR. However, AS-HBE cells do express functional ClC-2 in a manner identical to the parental cell line, 16HBE14o- cells, from which they were derived. AS-HBE cells were maintained at 37° C. in 5%/95% CO2/O2 in Minimal Essential Medium (MEM; GIBCO/Invitrogen, Carlsbad, Calif.) supplemented with Earl's salt, L-glutamine (GIBCO/Invitrogen), 10% heat-inactivated fetal bovine serum, 100 units/ml penicillin, 100 μg/ml streptomycin sulfate and 400 μg/ml G-418 (GIBCO/Invitrogen). The cells were grown in air-liquid interface on Biocoat inserts (Fisher Scientific, Chicago, Ill.), coated with human plasma fibronectine (GIBCO/Invitrogen) and vitrogen (Cohesion Technologies, Palo Alto, Calif.).
According to the same manner as described in Example 2, Short-circuit current measurements in the AS-HBE cells were carried out. Changes in short-circuit current (ΔIsc) were normalized to the filter area (0.3 cm^2) and reported as ΔIsc/cm^2.
Test compounds were used at a final concentration of 250 nM.

[2] = target: T1, recombinant hClC-2 chloride channel (Homo sapiens, UniProt P51788); test: Whole cell patch clamp, HEK cells transfected with hClC-2 (Test Example 1); assay type: cell-based; conditions: for Effect on Cl currents in HEK cells transfected with hClC-2 (in words): 1 μM; for Cl channel activity: 1 μM in 1% DMSO, HEK cells transfected with hClC-2
T1 construct: His; T7; expressed in transfected cells; host or cells: HEK-293 (ATCC), pcDNA3.1, G-418 selected
T1 sequence (P51788 1-898): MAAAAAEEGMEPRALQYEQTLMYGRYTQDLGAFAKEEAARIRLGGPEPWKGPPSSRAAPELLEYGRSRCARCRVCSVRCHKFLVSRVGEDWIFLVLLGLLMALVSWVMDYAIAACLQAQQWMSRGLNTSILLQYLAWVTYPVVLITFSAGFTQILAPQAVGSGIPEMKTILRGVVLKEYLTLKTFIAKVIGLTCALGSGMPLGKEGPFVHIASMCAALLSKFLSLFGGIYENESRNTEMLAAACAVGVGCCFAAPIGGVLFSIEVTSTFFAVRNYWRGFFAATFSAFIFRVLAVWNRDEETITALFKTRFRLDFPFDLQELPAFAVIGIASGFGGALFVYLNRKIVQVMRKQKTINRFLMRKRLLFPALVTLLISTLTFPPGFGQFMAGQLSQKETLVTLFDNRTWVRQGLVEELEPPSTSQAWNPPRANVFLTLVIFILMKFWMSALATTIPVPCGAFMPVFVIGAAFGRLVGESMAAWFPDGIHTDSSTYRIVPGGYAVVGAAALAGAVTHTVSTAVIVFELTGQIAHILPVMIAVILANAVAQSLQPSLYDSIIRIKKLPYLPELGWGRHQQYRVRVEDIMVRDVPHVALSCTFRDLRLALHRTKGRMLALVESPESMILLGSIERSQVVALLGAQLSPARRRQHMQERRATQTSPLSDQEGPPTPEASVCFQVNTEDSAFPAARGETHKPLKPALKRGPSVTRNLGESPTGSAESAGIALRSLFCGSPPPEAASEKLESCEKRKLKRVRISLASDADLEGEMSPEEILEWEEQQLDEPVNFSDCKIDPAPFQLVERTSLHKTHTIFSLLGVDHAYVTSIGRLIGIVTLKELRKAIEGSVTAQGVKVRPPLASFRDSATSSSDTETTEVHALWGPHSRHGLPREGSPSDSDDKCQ
Excerpt: (§1) Whole cell patch clamp method was used to assess the effect of compound 1 (13,14-dihydro-15-keto-16,16-difluoro-PGE1) and compound 2 (13,14-dihydro-15-keto-16,16-difluoro-18 (S)-methyl-PGE1) on recombinant hClC-2 chloride channel. In this example, effects of the respective compounds on Human Epithelial Kidney (HEK) cells transfected with human ClC-2 (hClC-2) were examined, and the results were compared with those on non-transfected HEK cells.
(§2) ClC-2 transfected human epithelial kidney (HEK) cells were prepared and used. HEK-293 cells obtained from American Type Culture Collection (ATCC; Manassas, Va.) were transfected with His- and T7-tagged human ClC-2 cDNA in the mammalian expression vector pcDNA3.1 (GIBCO/Invitrogen) using Lipofectamine (GIBCO/Invitrogen) for 5 h at 37° C. in serum-free medium. Cells were then resuspended in the serum-containing medium and cultured in the presence of 300 μg/ml G-418 (GIBCO/Invitrogen). The surviving cells were then expanded, tested to confirm expression of Cl- current and ClC-2 mRNA, and the cells expressing ClC-2 mRNA were frozen to store. Upon studies, the stored cells were thawed and maintained at 37° C. in 5%/95% CO2/O2 in MEM (GIBCO/Invitrogen) supplemented with 5% inactivated horse serum, 0.1 mM nonessential amino acids, 2 mM L-glutamine, 1 mM sodium pyruvate, 100 units/ml penicillin, and 100 μg/ml streptomycin sulfate.
(§3) In the whole cell patch clamp measurements, currents were elicited by voltage clamp pulses (1500 ms duration) between +40 mV and −140 mV, in 20 mV increments, from the beginning holding potential of −30 mV. Currents were measured 50-100 ms after start of the pulse. The external solution was normal Tyrode solution containing 135 mM NaCl, 1.8 mM CaCl2, 1 mM MgCl2, 5.4 mM KCl, 10 mM glucose, and 10 mM HEPES (pH 7.35). The pipette solution was 130 mM CsCl, 1 mM MgCl2, 5 mM EGTA, and 10 mM HEPES (pH 7.35); also present in the pipette was 1 mM ATP—Mg^2+ (pH 7.4).
(§4) Pipettes were prepared from borosilicate glass and pulled by a two stage Narashige puller to give 1-1.5 MΩ resistance. Data were acquired with Axopatch CV-4 headstage with Digidata 1200 digitizer and Axopatch 1D amplifier. Data were analyzed using pClamp 6.04 (Axon Instruments, Foster City, Calif.), Lotus 123 (IBM) and Origin (Microcal) software.
(§5) Compound 1 and compound 2 were used at a final concentration of 1 μM in 1% DMSO.

[3] = target: T2, recombinant human ClC-2 Chloride Channels (Homo sapiens, UniProt P51788); test: Whole cell patch clamp, ClC-2 transfected HEK cells, current increase (Test Example 4); assay type: cell-based; conditions: 100 nM, change from control
T2 construct: His; T7; expressed in transfected cells; host or cells: HEK-293 (ATCC), pcDNA3.1, G-418 selected
T2 sequence (P51788 1-898): T1 sequence (P51788 1-898)
Protocol: According to the same manner as described in Example 1, whole cell patch clamp measurements were carried out.
Test compounds were used at a final concentration of 100 nM.

[4] = test system: non-transfected HEK cells; test: Whole cell patch clamp, non-transfected HEK cells (Test Example 1); assay type: cell-based, human; conditions: for Effect on Cl currents in non-transfected cells (in words): 1 μM; for Cl channel activity: 1 μM in 1% DMSO, non-transfected HEK cells
Excerpt: as §1, §2, §3, §4, §5

Row | SMILES | Changes in short-circuit currents (Δlsc) [1] [μA/cm^2] | Effect on Cl currents in HEK cells transfected with hClC-2 (in words) [2] | Cl channel activity [2] [nS/pF] | Activation of ClC-2 channels ΔpA/pF [3] [pA/pF] | Effect on Cl currents in non-transfected cells (in words) [4] | Cl channel activity [4] [nS/pF]
1 | CC[C@H](C)CC(F)(F)C(=O)CC[C@H]1[C@H](O)CC(=O)[C@@H]1CCCCCCC(=O)O [Compound 2, 13,14-dihydro-15-keto-16,16-difluoro-18(S)-Methyl-PGE1] | 9.0 | activated | 0.558 ± 0.100 | 22.6 | did not increase | 0.036 ± 0.010
2 | CCCCC(F)(F)[C@@]1(O)CC[C@H]2[C@@H](CC(=O)[C@@H]2CCCCCCC(=O)O)O1 [Compound 1, (−)-7-[(2R,4aR,5R,7aR)-2-(1,1-difluoropentyl)-2-hydroxy-6-oxoperhydrocyclopenta[b]pyran-5-yl]heptanoic acid] | 4.3 | activated | 1.820 ± 0.114 | 39.8 | did not increase | 0.035 ± 0.014
